Data taken from patent US7521471B2, “4-cyanopyrazole-3-carboxamide derivatives, preparation and application thereof” (Sanofi-Aventis, priority 2003, dated 2009).

Experiments:
CB1 receptors = biological target: T1, CB1 receptors (Mus musculus, UniProt P47746); test: in vivo test (binding ex vivo) in mice after intravenous and/or oral administration
T1 construct: from tissue
Description: The compounds according to the invention were tested in vivo (binding ex vivo) in mice after intravenous and/or oral administration, according to the experimental conditions described by Rinaldi-Carmona et al. (J. Pharmacol. Exp., 1998, 284, 644-650). […] By the oral route, compounds 2, 3, 4, 11 and 12 have an ED50 of between 1 and 20 mg/kg for the CB1 receptors.

[1] = biological target: CB1 cannabinoid receptors (Homo sapiens, UniProt P21554); conditions: cited from earlier work
Sequence of CB1 cannabinoid receptors (P21554 whole entry): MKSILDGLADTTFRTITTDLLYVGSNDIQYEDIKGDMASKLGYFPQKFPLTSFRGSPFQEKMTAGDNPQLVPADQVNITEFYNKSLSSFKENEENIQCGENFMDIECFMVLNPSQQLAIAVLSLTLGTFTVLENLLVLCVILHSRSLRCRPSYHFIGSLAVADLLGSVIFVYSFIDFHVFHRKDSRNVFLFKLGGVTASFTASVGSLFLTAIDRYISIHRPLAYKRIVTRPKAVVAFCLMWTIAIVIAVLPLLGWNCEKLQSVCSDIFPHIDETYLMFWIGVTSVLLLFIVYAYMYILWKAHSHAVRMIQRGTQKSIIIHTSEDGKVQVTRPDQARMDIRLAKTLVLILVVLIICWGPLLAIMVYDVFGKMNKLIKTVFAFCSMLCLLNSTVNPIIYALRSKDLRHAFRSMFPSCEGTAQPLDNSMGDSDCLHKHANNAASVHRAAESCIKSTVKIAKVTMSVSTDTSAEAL

T1 sequence (P47746 whole entry): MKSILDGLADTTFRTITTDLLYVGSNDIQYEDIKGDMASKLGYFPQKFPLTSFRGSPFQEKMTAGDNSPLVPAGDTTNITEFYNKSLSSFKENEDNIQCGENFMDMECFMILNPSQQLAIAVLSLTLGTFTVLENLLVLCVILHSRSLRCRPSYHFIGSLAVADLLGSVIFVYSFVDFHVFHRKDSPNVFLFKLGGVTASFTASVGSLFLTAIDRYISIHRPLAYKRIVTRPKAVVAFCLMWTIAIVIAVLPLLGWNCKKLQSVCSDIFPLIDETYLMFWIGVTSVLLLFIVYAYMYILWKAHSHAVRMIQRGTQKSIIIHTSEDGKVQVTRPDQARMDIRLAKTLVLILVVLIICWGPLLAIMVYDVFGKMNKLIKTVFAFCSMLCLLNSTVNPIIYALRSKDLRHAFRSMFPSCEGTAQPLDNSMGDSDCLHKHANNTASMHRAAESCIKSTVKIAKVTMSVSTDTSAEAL

Work on CC(C)(C)NC(=O)c1nn(-c2ccc(Cl)cc2Cl)c(-c2ccc(Br)cc2)c1C#N [Compound 12, 5-(4-Bromophenyl)-4-cyano-1-(2,4-dichlorophenyl)-N-tert-butyl-1H-pyrazole-3-carboxamide] yielded an ED50 (CB1 receptors) of 1 to 20 mg/kg.
For COc1ccc(-c2c(C#N)c(C(=O)Nc3ccccc3)nn2-c2ccccc2Cl)cc1 [N-phenyl-1-(2-chlorophenyl)-4-cyano-5-(4-methoxyphenyl)-1H-pyrazole-3-carboxamide], the “properties for the CB1 cannabinoid receptors” value [1] is listed as “inverse agonist properties”.
